Experimental data taken from EP0041644B1 (priority 1980, dated 1981).

Legend:
L-1210 Leukemia [1] = test: L-1210 Leukemia (Table VIII)
Protocol: The sodium and ammonium salts of the present invention were tested against transplantable mouse tumors as indicated below. The methodology used generally followed the protocols of the National Cancer Institute (Cancer Chemotherapy Rep., Part 3, 3, 1-103 (1972). The essential experimental details are given at the bottom of the following tables.

L-1210 Leukemia [2] = test: L-1210 Leukemia (Table IX); assay type: in vivo, mice

## O=C1[O][Pt]2([NH]C3CCCCC3[NH]2)[O]C(=O)C1[O-].[Na+] (stereo not shown) [Example 6, 2-Hydroxymalonato(1,2-diaminocyclohexane)platinum (II), sodium salt]
L-1210 Leukemia [1]; 6 mg/kg/inj ip, qd 1→9
  Average Weight Change: -0.9 g
  Effect MST % T/C: 192 % T/C
  MST Days: 11.5 days
  Survivors Day 5(30): 6/6
L-1210 Leukemia [1]; 12 mg/kg/inj ip, qd 1→9
  Average Weight Change: -2.3 g
  Effect MST % T/C: 233 % T/C
  MST Days: 14.0 days
  Survivors Day 5(30): 6/6
L-1210 Leukemia [1]; 24 mg/kg/inj ip, qd 1→9
  Average Weight Change: -2.4 g
  Effect MST % T/C: 342 % T/C
  MST Days: 20.5 days
  Survivors Day 5(30): 4/6
L-1210 Leukemia [1]; 25 mg/kg/inj ip, d.1
  Average Weight Change: -0.8 g
  Effect MST % T/C: 183 % T/C
  MST Days: 11.0 days
  Survivors Day 5(30): 6/6
L-1210 Leukemia [1]; 48 mg/kg/inj ip, qd 1→9
  Average Weight Change: -3.3 g
  Effect MST % T/C: 100 % T/C
  MST Days: 6.0 days
  Survivors Day 5(30): 5/6
L-1210 Leukemia [1]; 50 mg/kg/inj ip, d.1
  Average Weight Change: -1.2 g
  Effect MST % T/C: 208 % T/C
  MST Days: 12.5 days
  Survivors Day 5(30): 6/6
L-1210 Leukemia [1]; 100 mg/kg/inj ip, d.1
  Average Weight Change,g: +2.6 g
  Effect MST % T/C: 217 % T/C
  MST Days: 13.0 days
  Survivors Day 5(30): 6/6
L-1210 Leukemia [1]; 200 mg/kg, single ip injection
  lethality: lethal
L-1210 Leukemia [1]; 200 mg/kg/inj ip, d.1
  Average Weight Change,g: TOX
  Effect MST % T/C: TOX
  MST Days: TOX
  Survivors Day 5(30): 1/6
L-1210 Leukemia [1]; qd 1→9, 12 mg/kg/inj
  T/C: 233%
L-1210 Leukemia [1]; qd 1→9, 24 mg/kg/injection
  T/C: 342%
L-1210 Leukemia [1]; single ip injections
  maximum T/C: 217%
L-1210 Leukemia [1]; single ip injections, dose of maximum T/C
  optimal doses: 100 mg/kg

## O=C1[O][Pt]2([NH]CC3(CCCCC3)C[NH]2)[O]C(=O)C1[O-].[Na+] [Example 9, 2-Hydroxymalonato (1,1-diaminomethylcyclohexane)-platinum (II), sodium salt]
other
  Water-solubility at room temperature: ≥ 100 mg/mL
L-1210 Leukemia [2]; 2 mg/kg/inj ip, qd 1→9
  Average Weight Change,g: -1.3 g
  Effect MST % T/C: 131 % T/C
  MST Days: 8.5 days
L-1210 Leukemia [2]; 4 mg/kg/inj ip, qd 1→9
  Average Weight Change,g: -1.2 g
  Effect MST % T/C: 154 % T/C
  MST Days: 10.0 days
L-1210 Leukemia [2]; 8 mg/kg/inj ip, qd 1→9
  Average Weight Change,g: -1.3 g
  Effect MST % T/C: 238 % T/C
  MST Days: 15.5 days
L-1210 Leukemia [2]; 12 mg/kg/inj ip, Day 1
  Average Weight Change,g: -1.8 g
  Effect MST % T/C: 162 % T/C
  MST Days: 10.5 days
L-1210 Leukemia [2]; 12 mg/kg/inj ip, qd 1→9
  Average Weight Change,g: -3.0 g
  Effect MST % T/C: 292 % T/C
  MST Days: 19.0 days
L-1210 Leukemia [2]; 24 mg/kg/inj ip, Day 1
  Average Weight Change,g: -3.7 g
  Effect MST % T/C: 215 % T/C
  MST Days: 14.0 days
L-1210 Leukemia [2]; 36 mg/kg/inj ip, Day 1
  Average Weight Change,g: -4.3 g
  Effect MST % T/C: 223 % T/C
  MST Days: 14.5 days
L-1210 Leukemia [2]; 48 mg/kg/inj ip, Day 1
  Average Weight Change,g: -3.6 g
  Effect MST % T/C: 200 % T/C
  MST Days: 13.0 days
L-1210 Leukemia [2]; qd 1→9 (cis-DDP 2.4, parent 8 and 12, sodium salt 12 mg/kg/injection)
  maximum T/C: 292%
L-1210 Leukemia [2]; single ip injection at maximum tolerated dose (cis-DDP 8 mg/kg, the two others 36 mg/kg)
  maximum T/C: 223%
